One compound from ChEMBL document CHEMBL4680347, “Discovery of novel 1,3,5-triazine derivatives as potent inhibitor of cervical cancer via dual inhibition of PI3K/mTOR” (Bioorg Med Chem, 2021) can be followed below.

For assay [1], the system named is HeLa. As to the kind of experiment: Antitumor activity against human HeLa cells xenografted in orally dosed BALB/c mouse assessed as reduction in tumor weight measured for 24 days. The assay is classed as functional, organism-based. Conditions: dose 5-15 mg/kg, time 24.0 day. In general terms: In xenograft studies the graft and the host belong to different species.

In assay [2] the target is Serine/threonine-protein kinase mTOR (Homo sapiens, UniProt P42345). As to the kind of experiment: Inhibition of mTOR (unknown origin) measured after 45 mins by LANCE Ultra assay. In general terms: TR-FRET usually uses a lanthanide donor and a delayed reading to cut background.
Assay [3] deals with HeLa. Put plainly: Induction of apoptosis in human HeLa cells assessed as late apoptotic cells at 4 uM measured after 24 hrs by Annexin-V/FITC and propidium iodide staining based flow cytometry (reference value: 3.4%). It is filed as functional.
Assay [4] concerns HeLa. As to the kind of experiment: Inhibition of cell invasion in human HeLa cells incubated for 24 hrs by crystal violet staining based transwell assay. It is filed as functional. Conditions: dose 4-12 µM.
Assay [5] concerns HeLa. As to the kind of experiment: Anticancer activity against human HeLa cells assessed as inhibition of cell proliferation measured after 48 hrs by MTT assay. It is filed as functional, cell-based. A general note: Tetrazolium dyes change colour on reduction, which living cells bring about.
Assay [6] relates to HeLa. As to the kind of experiment: Induction of cell cycle arrest in human HeLa cells assessed as accumulation at S phase at 4 uM after 24 hrs by RNase A/PI-staining based flow cytometric analysis (reference value: 17.17%). The assay is classed as functional.
The test system of assay [7] is HeLa. Put plainly: Inhibition of cell migration in human HeLa cells incubated for 72 hrs by wound healing assay. Conditions: dose 4-12 µM. It is filed as functional, cell-based.
Assay [8] deals with HeLa. As to the kind of experiment: Induction of apoptosis in human HeLa cells assessed as increase in Bcl-2 level upto 12 uM by Western blot analysis. It is filed as functional, cell-based. Conditions: dose microM <=12.
The subject of assay [9] is HeLa. Put plainly: Antiproliferative activity against human HeLa cells assessed as reduction in cell viability measured upto 12 uM by MTT assay. It is filed as functional, cell-based. Conditions: dose microM <=12, time 24-72 hrs, TDE = time-dependent effect.
In assay [10] the test system is HeLa. As to the kind of experiment: Inhibition of PI3K/AKT pathway in human HeLa cells assessed as reduction phosphorylated Akt level upto 12 uM by Western blot analysis. It is filed as cell-based. Conditions: dose microM <=12.
For assay [11], the system named is HeLa. As to the kind of experiment: Induction of cell cycle arrest in human HeLa cells assessed as accumulation at G1 phase at 8 uM after 24 hrs by RNase A/PI-staining based flow cytometric analysis (reference value: 52.21%). It is filed as functional.
The test system of assay [12] is HeLa. Put plainly: Inhibition of colony formation in human HeLa cells measured after 24 hrs by crystal violet staining based colony formation assay. It is filed as functional, cell-based. Conditions: dose 4-12 µM.
The subject of assay [13] is HeLa. Put plainly: Induction of apoptosis in human HeLa cells assessed as reduction in BAX level upto 12 uM by Western blot analysis. The assay is classed as functional, cell-based. Conditions: dose microM <=12.
Assay [14] relates to HeLa. As to the kind of experiment: Induction of cell cycle arrest in human HeLa cells assessed as accumulation at G2 phase at 4 uM after 24 hrs by RNase A/PI-staining based flow cytometric analysis (reference value: 30.62%). It is filed as functional.
Assay [15] has as its system HeLa. Put plainly: Induction of cell cycle arrest in human HeLa cells assessed as accumulation at S phase at 8 uM after 24 hrs by RNase A/PI-staining based flow cytometric analysis (reference value: 17.17%). It is filed as functional.

The term IC50 denotes the concentration that gives 50% inhibition.

Active and inactive are the calls of the source. No cut-off for these calls is given here.

On to `O=S(=O)(c1ccc(O)cc1)N1CCN(c2nc(NCCN3CCOCC3)nc(N3CCOCC3)n2)CC1`, for which the Activity result in the assay on HeLa [1] is “Dose-dependent effect”; in the assay on HeLa [3], 5.07%; in the assay with HeLa [4], “Dose-dependent effect”; in the assay with HeLa [6] it was 20.44%; in the assay on HeLa [7] it was “Dose-dependent effect”; in the assay on HeLa [9], “Tde”. The Activity was 20.38% in the assay on HeLa [11], “Dose-dependent effect” in the assay with HeLa [12], 20.38% in the assay with HeLa [14] and 19.52% in the assay on HeLa [15]. Also, the IC50 in assay [2] was 8.45 nM; in the assay with HeLa [5] it was 2210 nM. In addition, the result in the assay with HeLa [8] and in the assay on HeLa [13] was Active. For the same compound, in the assay with HeLa [10], the inhibition result was “Active”.
